Assay [1] has as its target T1, insulin (Homo sapiens, UniProt P01308). Put plainly: peptide-directed proximity catalysis labeling of insulin, intact protein LC-MS. In kind it is biochemical. The settings on record: control (scrambled peptide, peptide lacking PyOx, or PyOx-azide) with biotin-NASA 3b, pH 7.4, 2 h, 22 °C. The protocol: With these reagents in hand, we attempted peptide-directed proximity catalysis on insulin. Initial experiments were performed in pH 7.4 phosphate buffer at a concentration of 50 μM, which was above the K d calculated for peptide binding (Figure ). Varying equivalents of pyridinium oxime peptide P1-(PyOx) 1 (0, 1.25, 2.5, 5, or 10 equiv wrt protein) were then added, followed by the addition of biotin–NASA 3b (20 equiv wrt protein). […] After 2 h at room temperature (22 °C), reactions were analyzed by intact protein liquid chromatography mass spectrometry (LC-MS). […] Further controls using either a scrambled peptide (FYRTGF-(PyOx)1), peptide lacking the pyridinium oxime P1, or pyridinium oxime-azide 2 also gave no labeling, providing further evidence that labeling was mediated by a specific protein–peptide binding interaction, and catalyzed by the pyridinium oxime motif.
General protocol: A solution of PyOx-peptide probe ([…] in pH 7.4 PBS, 25 µL, 7.4 PBS, 25 µL, 1.25 nmol; Final concentration 25 µM ) and shaken for 30 min . A solution of biotin-NASA 3b (25 mM in DMSO, 1 µL, 25 nmol; Final concentration 490 µM) was then added and the mixture shaken at room temperature for 2 h. Samples were then analysed by LC-MS without purification.
Figure S5: Deconvoluted mass spectra from general labelling protocol showing modified and unmodified insulin. […]

The test system of a further assay is RNase S. Details: method as in Kim and Raines, Protein Sci. 1993 (ref 26). The settings on record: S-peptide cleaved from N-terminal domain of RNase A; ref Kim and Raines, Protein Sci. 1993 (ref 26); cited from earlier work.
Assay [2] concerns the target T1, insulin. Briefly: QCM-D binding of gold-tethered peptides to insulin. The settings on record: predicted from QCM-D of model peptides, 'noting the assumptions detailed above'. The source says: To predict whether the insulin-binding capability of P1 would be maintained after the introduction of a pyridinium oxime catalyst, peptides bearing either an N- or C-terminal cysteine (C-P1 and P1-C, respectively) were first synthesized and tethered to a gold sensor for quartz crystal microbalance with dissipation monitoring (QCM-D) analysis. It is important to note that these model peptides lacked the positive charge that would be introduced upon installation of a pyridinium oxime, and so evidence of binding was expected to be indicative of binding potential, rather than providing an exact measure of binding affinity.
Sensor preparation: QCM-D gold sensors (QSX 301, Biolin Scientific) were cleaned by UV–ozone treatment (30 min), followed by sonication in a 2% Hellmanex III solution (5 min) and then sonication in ultrapure water (5 min). Sensors were then dried with N2 […]
Binding studies: Following cleaning, each sensor was installed into the flow modules of a Q-Sense E4, QFM 401 system by Biolin Scientific. Each chamber was then filled with Milli-Q water at a flow rate of 100 μL/min controlled by a four-channel peristaltic pump. To achieve a stable baseline, PBS was left to flow through the modules at 100 μL/min until the drift in frequency was <±1 Hz over 10 min. […]

T1 sequence (P01308 25-54 limits assumed): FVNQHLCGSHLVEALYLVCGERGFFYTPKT
T1 sequence (P01308 90-110 limits assumed): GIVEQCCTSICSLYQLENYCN

For the substance “FYRTGF-(PyOx)1 [scrambled peptide control]”, at insulin [1], the “insulin labeling, controls” value is “no labeling”.

Consider KETAAAKFERQHMDSSTSA [P2], for which, in the assay with RNase S, the “binding affinity to remaining parent protein RNase S” value was “nM binding affinty”.

On to RGFFYT [P1], for which, on insulin [2], the “predicted affinity for target protein” value is “μM affinity”. The “insulin labeling, controls” value on insulin [1] is given as “no labeling”.
